This data set in a line: Solubility measurement in dilution solvent (PGMEA). The conditions noted are these: 0.5 g compound, 25° C., 100 rpm, one hour. It counts as physicochemical. As for the experimental part:
A dilution solvent (PGMEA) is respectively added to 0.5 g of the compounds according to Synthesis Examples 8 to 17 and Comparative Synthesis Examples 1 and 2, and each solution is stirred with a mixrotar (MIXROTAR VMR-5, Iuchi Seieido Co., Ltd.) at 25° C. and 100 rpm for one hour.
Reference for Solubility Evaluation
Greater than or equal to 10 wt % of a compound (a solute) is dissolved based on the total amount of a dilution solvent: ∘
Greater than or equal to 5 wt % but less than 10 wt % of a compound (a solute) is dissolved based on the total amount of a dilution solvent: Δ
Less than 5 wt % of a compound (a solute) is dissolved based on the total amount of a dilution solvent: X

As for `CCCCCOc1c(Cl)c(Cl)c2c(c1Cl)C1=NC/2=N\c2c3c(Cl)c(Cl)c(OCCCCC)c(Cl)c3c3[n]2[Zn][n]2/c(c4c(Cl)c(Cl)c(OCCCCC)c(Cl)c4/c2=N/1)=N\C1=NC(=N\3)/c2c(Cl)c(Cl)c(OCCCCC)c(Cl)c21` [Comparative Synthesis Example 2], the Solubility result is listed as “Δ (Greater than or equal to 5 wt % but less than 10 wt % of a compound (a solute) is dissolved based on the total amount of a dilution solvent)”.
